Literature values as cited in patent US20090202630A1, “ORALLY DISINTEGRATING TABLET COMPOSITIONS OF RANITIDINE AND METHODS OF MANUFACTURE” (priority 2008, published 2009).
Where a name gives a salt, the structure may show the parent alone.

CNC(=C[N+](=O)[O-])NCCSCc1ccc(CN(C)C)o1 [Ranitidine hydrochloride]
solubility in water (in words): freely soluble
